Measured values: PubChem BioAssay AID248 (DTP/NCI, 2004)
“And” between values parts separate entries of the source, which are not always exact repeats. Identical values can stand only once. Toxic doses and inconclusive results are not listed. Cut-off read from the data, not from the text of the source: active = T/C of 150% or more; inactive = T/C below 125%.

System: L1210 leukemia ip in BDF1 mice, survival T/C
Test: NCI In Vivo Anticancer Drug Screen. Data for tumor model L1210 Leukemia (intraperitoneal) in B6D2F1 (BDF1) mice
Conditions: endpoint: mean survival time, higher = longer survival
In short: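 Transplantable tumor model; survival measured in treated vs vehicle control mice. Value = treated/control.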

[1] = dose: 100.0 mg/kg/injection, schedule: Q01DX009 (ip), vehicle: saline
[2] = dose: 100.0 mg/kg/injection, schedule: Q01DX001 (ip), vehicle: saline
[3] = dose: 200.0 mg/kg/injection, schedule: Q01DX001 (ip), vehicle: saline
[4] = dose: 400.0 mg/kg/injection, schedule: Q01DX001 (ip), vehicle: saline
[5] = dose: 50.0 mg/kg/injection, schedule: Q01DX009 (ip), vehicle: saline
[6] = dose: 100.0 mg/kg/injection, schedule: Q01DX001 (ip), vehicle: Klucel (hydroxypropylcellulose) (HPC)
[7] = dose: 100.0 mg/kg/injection, schedule: Q04DX003 (ip), vehicle: saline
[8] = dose: 200.0 mg/kg/injection, schedule: Q01DX009 (ip), vehicle: saline
[9] = dose: 200.0 mg/kg/injection, schedule: Q04DX003 (ip), vehicle: saline
[10] = dose: 100.0 mg/kg/injection, schedule: Q04DX002 (ip), vehicle: Klucel (hydroxypropylcellulose) (HPC)
[11] = dose: 200.0 mg/kg/injection, schedule: Q04DX002 (ip), vehicle: Klucel (hydroxypropylcellulose) (HPC)
[12] = dose: 400.0 mg/kg/injection, schedule: Q04DX002 (ip), vehicle: Klucel (hydroxypropylcellulose) (HPC)
[13] = dose: 100.0 mg/kg/injection, schedule: Q04DX002 (ip), vehicle: saline with Tween-80
[14] = dose: 400.0 mg/kg/injection, schedule: Q04DX002 (ip), vehicle: saline with Tween-80
[15] = dose: 100.0 mg/kg/injection, schedule: Q01DX001 (ip), vehicle: other
[16] = dose: 100.0 mg/kg/injection, schedule: Q01DX009 (ip), vehicle: saline with Tween-80
[17] = dose: 200.0 mg/kg/injection, schedule: Q01DX009 (ip), vehicle: saline with Tween-80
[18] = dose: 400.0 mg/kg/injection, schedule: Q01DX009 (ip), vehicle: saline with Tween-80
[19] = dose: 100.0 mg/kg/injection, schedule: Q04DX003 (ip), vehicle: saline with Tween-80
[20] = dose: 200.0 mg/kg/injection, schedule: Q04DX003 (ip), vehicle: saline with Tween-80
[21] = dose: 100.0 mg/kg/injection, schedule: Q01DX001 (ip), vehicle: saline with Tween-80
[22] = dose: 200.0 mg/kg/injection, schedule: Q01DX001 (ip), vehicle: saline with Tween-80
[23] = dose: 400.0 mg/kg/injection, schedule: Q01DX001 (ip), vehicle: saline with Tween-80
[24] = dose: 400.0 mg/kg/injection, schedule: Q04DX003 (ip), vehicle: saline with Tween-80

Measured: T/C

CC1=Nc2ccccc2NC(C)C1C (centres undefined)
inactive: dose: 12.5 mg/kg/injection, schedule: Q01DX009 (ip), vehicle: Klucel (hydroxypropylcellulose) (HPC) 100 % of control | dose: 25.0 mg/kg/injection, schedule: Q01DX009 (ip), vehicle: Klucel (hydroxypropylcellulose) (HPC) 96 % of control | dose: 50.0 mg/kg/injection, schedule: Q01DX009 (ip), vehicle: Klucel (hydroxypropylcellulose) (HPC) 108 % of control | [1] 91 % of control

COc1cc(C(=O)COC(C)=O)cc(OC)c1OC(C)=O
inactive: [2] 88 % of control | [3] 89 % of control | [4] 89 % of control

CCC1(C)C(=O)N(Br)C(=O)N1Br (centres undefined)
inactive: [5] 91 % of control | dose: 50.0 mg/kg/injection, schedule: Q04DX003 (ip), vehicle: saline 100 % of control | [6] 106 % of control | [1] 95 % of control | [7] 105 % of control | dose: 200.0 mg/kg/injection, schedule: Q01DX001 (ip), vehicle: Klucel (hydroxypropylcellulose) (HPC) 102 % of control | [8] 95 % of control | [9] 97 % of control

CNc1nc(Cl)nc(Cl)n1
inactive: [7] 87 % of control | [9] 87 % of control

CC(C)(C)CC(C)(C)c1ccc(O)cc1
inactive: dose: 62.5 mg/kg/injection, schedule: Q01DX Z (ip), vehicle: saline 95 % of control | dose: 100.0 mg/kg/injection, schedule: Q01DX001 (ip), vehicle: carboxymethylcellulose (CMC) 94 % of control | dose: 125.0 mg/kg/injection, schedule: Q01DX Z (ip), vehicle: saline 101 % of control | dose: 200.0 mg/kg/injection, schedule: Q01DX001 (ip), vehicle: carboxymethylcellulose (CMC) 100 % of control | dose: 250.0 mg/kg/injection, schedule: Q01DX Z (ip), vehicle: saline 90 % of control | dose: 400.0 mg/kg/injection, schedule: Q01DX001 (ip), vehicle: carboxymethylcellulose (CMC) 100 % of control | dose: 500.0 mg/kg/injection, schedule: Q01DX Z (ip), vehicle: saline 100 % of control

Cc1cc2cccc(CN)c2cc1C
inactive: [6] 93 % of control

CCC(=O)C(CCN(C)C)(c1ccccc1)c1ccccc1
inactive: [2] 110 % of control

COC1(c2ccccc2)c2cc3ccccc3cc2C(OC)(c2ccccc2)c2cc3ccccc3cc21 (centres undefined)
inactive: [10] 98 % of control | [11] 109 % of control | [12] 95 % of control

c1ccc(-c2oc(-c3ccccc3)c3c(-c4ccccc4)cccc23)cc1
inactive: [13] 105 % of control | [14] 98 % of control

CS(=O)(=O)OCCN(CCOS(C)(=O)=O)c1ccc(C(=O)O)cc1
inactive: dose: 42.0 mg/kg/injection, schedule: Q01DX015 (ip), vehicle: other 108 % of control | dose: 50.0 mg/kg/injection, schedule: Q01DX001 (ip), vehicle: other 115 % of control | dose: 66.0 mg/kg/injection, schedule: Q01DX015 (ip), vehicle: saline 120 % of control | dose: 72.0 mg/kg/injection, schedule: Q01DX015 (ip), vehicle: other 121 % of control | [15] 115 % of control | dose: 100.0 mg/kg/injection, schedule: Q01DX015 (ip), vehicle: saline 122 % of control | dose: 120.0 mg/kg/injection, schedule: Q01DX015 (ip), vehicle: other 116 % of control | dose: 150.0 mg/kg/injection, schedule: Q01DX015 (ip), vehicle: saline 117 % of control | dose: 177.0 mg/kg/injection, schedule: Q01DX001 (ip), vehicle: other 118 % of control | dose: 177.0 mg/kg/injection, schedule: Q01DX001 (ip), vehicle: saline 117 % of control | dose: 177.0 mg/kg/injection, schedule: Q01DX015 (ip), vehicle: other 93 % of control | dose: 220.0 mg/kg/injection, schedule: Q01DX015 (ip), vehicle: saline 86 % of control | dose: 267.0 mg/kg/injection, schedule: Q01DX001 (ip), vehicle: other 118 % of control | dose: 267.0 mg/kg/injection, schedule: Q01DX001 (ip), vehicle: saline 110 % of control

COC(=O)C(C)CC(C)(C)[N+](=O)[O-] (centres undefined)
inactive: [16] 97 % of control | [17] 103 % of control | [18] 97 % of control

CN1CCCCCC1
inactive: dose: 50.0 mg/kg/injection, schedule: Q01DX009 (ip), vehicle: acetone 86 % of control | dose: 100.0 mg/kg/injection, schedule: Q01DX009 (ip), vehicle: acetone 110 % of control

CN(CC(=O)O)CC1C(c2ccccc2)C1c1ccccc1 (centres undefined)
inactive: [10] 100 % of control | [11] 93 % of control

Cn1nc(N)c2cc(C(N)=O)c(N)nc21
inactive: dose: 100.0 mg/kg/injection, schedule: Q01DX009 (ip), vehicle: Klucel (hydroxypropylcellulose) (HPC) 88 % of control | dose: 100.0 mg/kg/injection, schedule: Q04DX003 (ip), vehicle: Klucel (hydroxypropylcellulose) (HPC) 96 % of control | dose: 200.0 mg/kg/injection, schedule: Q04DX003 (ip), vehicle: Klucel (hydroxypropylcellulose) (HPC) 100 % of control | dose: 400.0 mg/kg/injection, schedule: Q01DX009 (ip), vehicle: Klucel (hydroxypropylcellulose) (HPC) 90 % of control | dose: 400.0 mg/kg/injection, schedule: Q04DX003 (ip), vehicle: Klucel (hydroxypropylcellulose) (HPC) 97 % of control

Nc1ccc(CCCCc2ccccc2)cc1Cl
inactive: [19] 100 % of control | [20] 100 % of control

CC(C#N)CN1CC1 (centres undefined)
inactive: dose: 20.0 mg/kg/injection, schedule: Q01DX001 (ip), vehicle: Klucel (hydroxypropylcellulose) (HPC) 101 % of control

N#CCCP(=S)(CCC#N)CCC#N
inactive: [10] 94 % of control | [11] 112 % of control | [12] 105 % of control

Cc1cc(C)cc(CCc2cc(C)cc(C)c2)c1
inactive: [21] 95 % of control | [16] 88 % of control | [22] 94 % of control | [17] 95 % of control | [23] 89 % of control | [18] 95 % of control

O=c1cc(CNc2ccc(Cl)cc2)[nH]c(=O)[nH]1
inactive: [19] 98 % of control | [20] 101 % of control | [24] 95 % of control

CC(=O)N(N=O)c1c(C)cccc1C
inactive: dose: 50.0 mg/kg/injection, schedule: Q01DX001 (ip), vehicle: saline 102 % of control | [2] 105 % of control

COc1ccc([N+](=O)[O-])cc1NS(=O)(=O)c1c(C)cc(C)cc1C
inactive: dose: 50.0 mg/kg/injection, schedule: Q01DX009 (ip), vehicle: saline with Tween-80 94 % of control and 88 % of control | [21] 92 % of control | [16] 94 % of control and 97 % of control | [13] 107 % of control | [19] 98 % of control | [22] 104 % of control | [17] 97 % of control and 103 % of control | dose: 200.0 mg/kg/injection, schedule: Q04DX002 (ip), vehicle: saline with Tween-80 103 % of control | [20] 97 % of control | [23] 92 % of control | [18] 97 % of control | [14] 103 % of control | [24] 93 % of control

CCCCCCCCOC(=O)c1[nH]cnc1/N=N/N(C)CCCC
inactive: [15] 107 % of control | dose: 200.0 mg/kg/injection, schedule: Q01DX001 (ip), vehicle: other 107 % of control | dose: 400.0 mg/kg/injection, schedule: Q01DX001 (ip), vehicle: other 102 % of control

CC(=O)Nn1c(=O)c(=O)oc2ccccc21
inactive: dose: 75.0 mg/kg/injection, schedule: Q01DX001 (ip), vehicle: acetone 94 % of control | dose: 150.0 mg/kg/injection, schedule: Q01DX001 (ip), vehicle: acetone 93 % of control | dose: 300.0 mg/kg/injection, schedule: Q01DX001 (ip), vehicle: acetone 96 % of control

COc1ccc(OC)c2c(=O)c(C(=O)O)c[nH]c12
inactive: [2] 102 % of control | [3] 100 % of control | [4] 105 % of control

COc1ncnc(=O)[nH]1
inactive: [2] 97 % of control | [3] 98 % of control | [4] 97 % of control

COc1cccc[n+]1[O-]
inactive: [5] 94 % of control | [1] 101 % of control | [7] 96 % of control | [8] 89 % of control | [9] 92 % of control
